Laboratory results as given in article PMC7605213 (Journal of medicinal chemistry, 2020).
Values joined by “and” are separate entries in the source; they are usually repeats but may differ in a detail not shown here. Equal entries are not always repeated. “Also recorded” adds a separate entry of the source. Marks after values point to notes of the source that are not given here.

Key:
[1] = tested on: CQ-resistant Pf Dd2 strain; assay: In vitro antiplasmodial activity, SYBR green I fluorescence, Dd2 strain; assay type: cell-based, Plasmodium falciparum; details: for activity against the Dd2 strain: aminoquinolines without the arylvinyl group; for resistance index (RI): RI = Dd2 EC50/3D7 EC50; for EC50: read-out: EC50 against the Dd2 strain, CQ-resistant Pf Dd2, 72 h incubation
[2] = tested on: P. berghei ANKA strain expressing luciferase; assay: In vivo antimalarial activity: elimination of existing infection; design: species or system Swiss-Webster female mice; details: 25 mg/kg daily p.o., monophosphate salts, treatment from 48 h post infection
[3] = tested on: P. berghei ANKA 676m1cl1; assay: Assessment of the curative property; assay type: in vivo, BALB/c female mice
[4] = tested on: β-hematin crystal formation; assay: β-Hematin formation inhibition; assay type: biochemical; details: 100 μM hemin, 16 h, 37 °C, highest concentration tested 200 μM
[5] = tested on: malaria infection; details: cited from earlier work
[6] = tested on: synchronized P. falciparum Dd2 cultures; assay: Stage-specific action; assay type: cell-based, Plasmodium falciparum; details: for stage-specific action on cell cycle progression: 5 × EC50 (DHA 50 nM, atovaquone 6.6 nM) added at 6, 18, 30, 42 HPI
[7] = mouse liver microsomes, 15, 30 and 60 min, tentative assignment
[8] = mouse liver microsomes; values reported from the initial study ref 33; cited from earlier work
[9] = tested on: P. falciparum Dd2 cultures; assay: Transmission electron microscopy of treated parasites; assay type: cell-based, Plasmodium falciparum; details: 5 × EC50 for 1.5, 3, 6 or 12 h
[10] = tested on: HepG2 cells; assay: In vitro cytotoxicity assay; assay type: cell-based, human; details: for selectivity index (SI): SI = HepG2 EC50/Dd2 EC50
[11] = tested on: CQ-sensitive 3D7 strain; assay: In vitro antiplasmodial activity, SYBR green I fluorescence, 3D7 strain; assay type: cell-based, Plasmodium falciparum

COc1ccc2nc(C)cc(NCCN(C)C)c2c1 [6a, N^1-(6-Methoxy-2-methylquinolin-4-yl)-N^2,N^2-dimethylethane-1,2-diamine]
activity against the Dd2 strain [1]: inactive

Cc1cc(NCCN(C)C)c2cc(Cl)ccc2n1 [6c, N^1-(6-Chloro-2-methylquinolin-4-yl)-N^2,N^2-dimethylethane-1,2-diamine]
activity against the Dd2 strain [1]: inactive

Cc1cc(NCCCCN(C)C)c2cc(Cl)ccc2n1 [6e, N^1-(6-Chloro-2-methylquinolin-4-yl)-N^4,N^4-dimethylbutane-1,4-diamine]
activity against the Dd2 strain [1]: inactive

CN(C)CCNc1cc(/C=C/c2ccc(C(F)(F)F)cc2)nc2ccc(Cl)cc12.O=P(O)(O)O [24s, (E)-N^1-(6-Chloro-2-(4-(trifluoromethyl)styryl)quinolin-4-yl)-N^2,N^2-dimethylethane-1,2-diamine Monophosphate Salt]
effect on malaria infection (bioluminescence day 7) [2]: full protection and cure | mice cured (no parasites in blood smears / 100% reduction of parasitemia) ([3]; 100 mg/kg p.o. once daily for 4 days): no parasites were detected and 5/5 | body weight change ([3]; 25 and 100 mg/kg p.o.): no significant weight loss | tolerability / signs of toxicity ([3]; 25 and 100 mg/kg p.o.): well tolerated; also recorded: no apparent signs of toxicity

CN(C)CCNc1cc(/C=C/c2ccc(F)cc2)nc2ccc(Cl)cc12.O=P(O)(O)O [29s, (E)-N^1-(6-Chloro-2-(4-fluorostyryl)quinolin-4-yl)-N^2,N^2-dimethylethane-1,2-diamine Monophosphate Salt]
effect on malaria infection (bioluminescence day 7) [2]: effectively cleared the parasites

CN1CCN(CCNc2cc(/C=C/c3ccc(F)cc3)nc3ccc(Cl)cc23)CC1.O=P(O)(O)O [86s, (E)-6-Chloro-2-(4-fluorostyryl)-N-(2-(4-methylpiperazin-1-yl)-ethyl)quinolin-4-amine Monophosphate Salt]
effect on malaria infection (bioluminescence day 7) [2]: ineffective

CCN(CC)CCCC(C)Nc1ccnc2cc(Cl)ccc12 (stereo not drawn) [CQ, chloroquine, reference compound]
inhibition of β-hematin formation [4]: strongly inhibited β-hematin formation | mean survival time (MSD) ([5]; 30 mg/kg ref 61): 24 days

C[C@H]1[C@@H](O)O[C@@H]2O[C@@]3(C)CC[C@H]4[C@H](C)CC[C@@H]1[C@@]24OO3 [DHA, dihydroartemisinin, reference compound]
stage-specific action on cell cycle progression [6]: inhibition of all stages

CCN(CC)CCCC(C)Nc1cc(/C=C/c2ccc([N+](=O)[O-])cc2)nc2ccc(OC)cc12 (stereo not drawn) [UCF501]
metabolites / metabolic pathway identified by LC–MS [7]: N-deethylation of the tertiary amine (monodeethyl UCF501 and UCF501-M1), O-demethylation (UCF501-M2), oxidation of styrylquinoline (UCF501-M3), and the reduction of the nitro group | % remaining after 60 min [8]: 47.8^a % | mice cured of malaria infection ([5]; 100 mg/kg twice daily p.o. ref 33): 4/5

O=C1C(O)=C([C@H]2CC[C@H](c3ccc(Cl)cc3)CC2)C(=O)c2ccccc21 [atovaquone, reference compound]
stage-specific action on cell cycle progression [6]: no inhibition in late stages

COc1ccc2nc(/C=C/c3ccccc3)cc(NCCN(C)C)c2c1 [compound 8, (E)-N^1-(6-Methoxy-2-styrylquinolin-4-yl)-N^2,N^2-dimethylethane-1,2-diaminei]
resistance index (RI) [1]: ≥ 1.5

COc1ccc2nc(/C=C/c3ccc(OC)c(OC)c3)cc(NCCN(C)C)c2c1 [compound 13, (E)-N^1-(2-(3,4-Dimethoxystyryl)-6-methoxyquinolin-4-yl)-N^2,N^2-dimethylethane-1,2-diamine]
resistance index (RI) [1]: ≥ 1.5

COc1ccc2nc(/C=C/c3cc(OC)c(OC)c(OC)c3)cc(NCCN(C)C)c2c1 [compound 14, (E)-N^1-(6-Methoxy-2-(3,4,5-trimethoxystyryl)quinolin-4-yl)-N^2,N^2-dimethylethane-1,2-diamine]
resistance index (RI) [1]: ≥ 1.5

COc1ccc(/C=C/c2cc(NCCN(C)C)c3cc(F)ccc3n2)cc1OC [compound 20, (E)-N^1-(2-(3,4-Dimethoxystyryl)-6-fluoroquinolin-4-yl)-N^2,N^2-dimethylethane-1,2-diamine]
fold improved activity compared to compound 13 ([1]; Dd2): approximately 4.5 fold

CN(C)CCNc1cc(/C=C/c2ccc(C(F)(F)F)cc2)nc2ccc(Cl)cc12 [compound 24, (E)-N^1-(6-Chloro-2-(4-(trifluoromethyl)styryl)quinolin-4-yl)-N^2,N^2-dimethylethane-1,2-diamine]
inhibition of β-hematin formation [4]: very low activity against β-hematin crystal formation; also recorded: weaker inhibitory activity toward β-hematin formation as compared with CQ | metabolites / metabolic pathway identified by LC–MS [7]: N-demethylation was the primary metabolic route | stage-specific action on cell cycle progression [6]: blocked when the compound was added at 6, 18, and 30 HPI | effect on cell cycle when added at 42 HPI ([6]; 5 × EC50, added at 42 HPI): did not affect the schizont maturation or the reinvasion of new merozoites | ultrastructural effect (TEM) [9]: appearance of membrane-bound structures within the parasite DV | selectivity index (SI) [10]: > 1000

CN(C)CCNc1cc(/C=C/c2ccc(N(C)C)cc2)nc2ccc(Cl)cc12 [compound 28, (E)-N^1-(6-Chloro-2-(4-(dimethylamino)styryl)quinolin-4-yl)-N^2,N^2-dimethylethane-1,2-diamine]
resistance index (RI) [1]: 1.3

CN(C)CCNc1cc(/C=C/c2ccc(F)cc2)nc2ccc(Cl)cc12 [compound 29, (E)-N^1-(6-Chloro-2-(4-fluorostyryl)quinolin-4-yl)-N^2,N^2-dimethylethane-1,2-diamine]
inhibition of β-hematin formation [4]: showed inhibitory activity toward β-hematin formation in a concentration-dependent manner | metabolites / metabolic pathway identified by LC–MS [7]: monodemethylated (29-M1), bi-demethylated (29-M2), and oxidized products (29-M3) | stage-specific action on cell cycle progression [6]: stage-specific action at the late trophozoite phase | selectivity index (SI) [10]: > 1000

COc1ccc2nc(/C=C/c3ccncc3)cc(NCCN(C)C)c2c1 [compound 41, (E)-N^1-(6-Methoxy-2-(2-(pyridin-4-yl)vinyl)quinolin-4-yl)-N^2,N^2-dimethylethane-1,2-diamine]
fold activity difference versus 2-pyridyl isomer 42 ([1]; Dd2): up to 30 fold

CN(C)CCNc1cc(/C=C/c2ccncc2)nc2ccc(Cl)cc12 [compound 50, (E)-N^1-(6-Chloro-2-(2-(pyridin-4-yl)vinyl)quinolin-4-yl)-N^2,N^2-dimethylethane-1,2-diamine]
resistance index (RI) [1]: < 1

CN1CCN(CCNc2cc(/C=C/c3ccc(F)cc3)nc3ccc(Cl)cc23)CC1 [compound 86, (E)-6-Chloro-2-(4-fluorostyryl)-N-(2-(4-methylpiperazin-1-yl)-ethyl)quinolin-4-amine]
inhibition of β-hematin formation [4]: showed inhibitory activity toward β-hematin formation in a concentration-dependent manner | metabolites / metabolic pathway identified by LC–MS [7]: Demethylated (86-M1) and oxidized products (86-M2) | fold more potent than analogue 95 ([1]; Dd2): ~2.5 fold | stage-specific action on cell cycle progression [6]: stage-specific action at the late trophozoite phase

Fc1ccc(/C=C/c2cc(NCCCCN3CCOCC3)c3cc(Cl)ccc3n2)cc1 [compound 92, (E)-6-Chloro-2-(4-fluorostyryl)-N-(4-morpholinobutyl)quinolin-4-amine]
metabolites / metabolic pathway identified by LC–MS [7]: breakage of the morpholine ring | fold improved potency compared with counterpart 81 ([1]; Dd2): ~2 fold | fold increase in inhibitory activity relative to compound 81 [11]: ~6 fold | fold increase in cytotoxicity relative to compound 81 ([10]; HepG2): 4.8 fold | selectivity index (SI) [10]: > 1000

Clc1ccc2nc(/C=C/c3ccncc3)cc(NCCCCN3CCOCC3)c2c1 [compound 93, (E)-6-Chloro-N-(4-morpholinobutyl)-2-(2-(pyridin-4-yl)vinyl)-quinolin-4-amine]
metabolites / metabolic pathway identified by LC–MS [7]: breakage of the morpholine ring | fold improved potency compared with counterpart 82 ([1]; Dd2): ~13 fold | EC50 [1]: ≤ 15 nM

FC(F)(F)c1ccc(/C=C/c2cc(NCCCCN3CCOCC3)c3cc(Cl)ccc3n2)cc1 [compound 98, (E)-6-Chloro-N-(4-morpholinobutyl)-2-(4-(trifluoromethyl)-Styryl)quinolin-4-amine]
metabolites / metabolic pathway identified by LC–MS [7]: breakage of the morpholine ring

Fc1ccc(/C=C/c2cc(NCCCCN3CCOCC3)c3cc(Cl)ccc3n2)c(F)c1 [compound 104, (E)-6-Chloro-2-(2,4-difluorostyryl)-N-(4-morpholinobutyl)-quinolin-4-amine]
fold more active than 103 ([1]; Dd2): ~2.5 fold

Fc1ccc(/C=C/c2cc(NCCCCN3CCOCC3)c3cc(Cl)ccc3n2)cc1F [compound 105, (E)-6-Chloro-2-(3,4-difluorostyryl)-N-(4-morpholinobutyl)-quinolin-4-amine]
metabolites / metabolic pathway identified by LC–MS [7]: breakage of the morpholine ring | fold more active than 103 ([1]; Dd2): ~7 fold

Fc1cnccc1/C=C/c1cc(NCCCCN2CCOCC2)c2cc(Cl)ccc2n1 [compound 109, (E)-6-Chloro-2-(2-(3-fluoropyridin-4-yl)vinyl)-N-(4-morpholinobutyl)quinolin-4-amine]
fold less active than counterpart 93 ([1]; Dd2): ~7.5 fold

(E)-4-(6-Chloro-2-(4-isocyanostyryl)quinolin-4-yl)morpholine [compound 64]
EC50 [1]: > 1000 nM
